Measurements published in article PMC12406192, “Sustainable Joullié–Ugi and Continuous Flow Implementation Led to Novel Captopril-Inspired Broad-Spectrum Metallo-β-Lactamase Inhibitors” (Journal of Medicinal Chemistry, 2025).
Where “and” joins values, the source holds several entries; their conditions need not be identical. Identical values can stand only once. Entries after “also recorded” stand apart in the source; their conditions may differ. Marks after values point to notes of the source that are not given here.

Key:
[1] = target: T1, NDM-1 (Klebsiella pneumoniae, UniProt C7C422); assay: Kinetic fluorescence-based in vitro assay with fluorocillin substrate (IC50); type: biochemical; conditions: 30 min preincubation
T1 construct: made in house; host or cells: E. coli
Description: (§1) IC50 values were determined in a kinetic fluorescence-based in vitro assay as described previously. All compounds were preincubated with the recombinant protein for 30 min before addition of the fluorogenic substrate fluorocillin. , The inhibitory activity was also determined (expressed as the percentage of inhibition in the presence of 50 μM compound) using a spectrophotometric assay in which the hydrolysis of imipenem (the reporter substrate) was monitored (see Section for details).
(§2) The inhibitory activity of the compounds was determined using enzyme assays with recombinant NDM-1, VIM-1, VIM-2, IMP-1, and IMP-7. These enzymes were produced in E. coli and purified as previously described. , The fluorogenic substrate fluorocillin was synthesized according to the procedure described by Rukavishnikov et al. The assays were performed in 96-well format using black polystyrene plates (Corning, Corning, NY) at room temperature, and the measurements were carried out on the Tecan spectrophotometer Infinite F200 PRO (Tecan, Männedorf, Switzerland). The protein stock solutions were diluted in assay buffer (HEPES 50 mM, pH 7.5 containing 0.01%Triton X-100, buffer HX) to reach final concentrations of VIM-1–4 nM, IMP-7–0.1 nM; NDM-1–3 nM. Subsequently, 89 μL of the protein solution was mixed with 1 μL of the inhibitor diluted in DMSO (final DMSO concentration 1% at final assay volume of 100 μL) and incubated for 30 min. […] Negative controls were measured in the absence of enzyme (89 μL of assay buffer), whereas the positive controls were measured in the presence of enzyme and in the absence of inhibitors (1 μL of DMSO). Each measurement was performed in triplicate in three independent experiments. IC50 values were calculated using data obtained from measurements with at least eight different inhibitor concentrations, applying a sigmoidal dose–response (variable slope with four parameters) equation using GraphPad Prism 5 (GraphPad Software, La Jolla, CA) software. […] All assays were performed in at least in triplicate.

[2] = target: T1, NDM-1; assay: Spectrophotometric direct competition assay, imipenem hydrolysis (reporter substrate); type: biochemical; conditions: for Ki: competitive model, imipenem reporter substrate, read-out: K i NDM-1; for inhibition at 50 µM: read-out: percentage of inhibition NDM-1
Description: as §1, §2

[3] = target: T2, IMP-1 (Serratia marcescens, UniProt P52699); assay: biochemical; conditions: for inhibition at 50 µM: read-out: percentage of inhibition IMP-1
T2 construct: made in house; host or cells: E. coli
Description: as §1, §2

[4] = target: T3, VIM-2 (Escherichia coli, UniProt Q5U7L7); assay: biochemical; conditions: read-out: percentage of inhibition VIM-2
T3 construct: made in house; host or cells: E. coli
Description: as §1, §2

[5] = system: E. coli SI-M001 (bla NDM‑1 +); assay: Imipenem MIC, broth microdilution, with fixed concentration of compound; type: cell-based; conditions: compound at 32 μg/mL; median of three experiments
Description: (§3) In vitro antimicrobial susceptibility testing was performed according to established standards. […]. The strains used in the study were described elsewhere.

[6] = system: E. coli SI-G001 (bla NDM‑4 +); type: cell-based; conditions: compound at 32 μg/mL; median of three experiments
Description: (§4) In vitro antimicrobial susceptibility testing was performed according to established standards. […] The strains used in the study were described elsewhere.

[7] = system: E. coli SI–N003 (bla NDM‑7 +); type: cell-based; conditions: compound at 32 μg/mL; median of three experiments
Description: as §4

[8] = system: A. baumannii AC-54/97 (bla IMP‑2 +); assay: Imipenem MIC, broth microdilution, with fixed concentration of compound; type: cell-based; conditions: compound at 32 μg/mL; median of three experiments
Description: as §4

[9] = system: K. pneumoniae 7023 (bla VIM‑1 +); assay: as above; type: cell-based; conditions: for imipenem MIC, K. pneumoniae 7023 (bla VIM‑1 +): compound at 32 μg/mL, median of three experiments
Description: as §4

[10] = system: K. pneumoniae VA-416/02 (bla VIM‑4 +); assay: as above; type: cell-based; conditions: compound at 32 μg/mL; median of three experiments
Description: as §4

[11] = system: S. marcescens SI-1591 (bla VIM‑2 +); assay: microbe, parasite or virus in culture; type: cell-based; conditions: compound at 32 μg/mL; median of three experiments
Description: as §4

[12] = system: MBL-producing clinical isolates; assay: Synergistic activity with imipenem on the whole panel of clinical isolates; type: cell-based
Description: as §3

[13] = target: T3, VIM-2; assay: biochemical; conditions: for K, VIM-2 / k –2, VIM-2: from dependence of k inact on inhibitor concentration; for Kd: time-dependent inhibitors, measured at steady state, listed in Table 2 as Ki with footnote 'Measured as K d'
[14] = target: IMP-7 (Pseudomonas aeruginosa, UniProt Q93AU3); assay: Kinetic fluorescence-based in vitro assay with fluorocillin substrate (IC50); type: biochemical; conditions: 30 min preincubation
Description: as §1, §2

[15] = target: T4, VIM-1 (Pseudomonas aeruginosa, UniProt A0A0F7KYQ8); assay: as above; type: biochemical
T4 construct: made in house; host or cells: E. coli
Description: as §1, §2

[16] = target: T5, human angiotensin-converting enzyme 1 (ACE-1) (Homo sapiens, UniProt P12821); assay: ACE Activity Assay Kit, fluorogenic substrate; type: biochemical; conditions: for inhibition at 50 µM: 50 μM inhibitor
T5 construct: purchased Sigma-Aldrich CS0002
Description: To assess the selectivity of the compounds, their inhibitory activity on human angiotensin-converting enzyme 1 (ACE-1) was performed using the ACE Activity Assay Kit (Sigma-Aldrich cat. No. CS0002). […] Captopril (racemic mixture, D- and L-stereoisomers) was used as control in these experiments.

[17] = system: K. pneumoniae T2301 (bla NDM‑1 +); assay: Imipenem MIC, broth microdilution, with fixed concentration of compound; type: cell-based; conditions: compound at 128 μg/mL; median of three experiments
Description: as §3

[18] = system: K. pneumoniae T2216 (bla VIM‑1 +); assay: as above; type: cell-based; conditions: compound at 128 μg/mL; median of three experiments
Description: as §4

[19] = system: P. aeruginosa T2325 (bla IMP‑1 +); assay: as above; type: cell-based
Description: as §4

[20] = system: IMP-1 expressing P. aeruginosa (T2325); assay: Growth inhibition assay (OD600 growth curves); type: cell-based
Description: (§5) 4 Growth inhibition assay. […] Purple = growth control; red = 6d; blue = imipenem; green = imipenem plus 6d.
(§6) A computerized incubator (Tecan Infinite M200 pro, Crailsheim, Germany) was used to obtain the growth curves over a time course. Optical density (OD600) was measured for evaluating bacterial (i.e., K. pneumoniae NDM-1, P. aeruginosa IMP-1, K. pneumoniae VIM-1) density in suspension. Prior to each experiment, bacteria were cultured to the exponential phase (OD600 = 0.6–0.8) in cation-adjusted Mueller Hinton broth (Becton Dickinson, Heidelberg, Germany). 5 μL of diluted bacterial suspension and 100 μL of cation-adjusted Mueller Hinton broth either with or without imipenem (Arcos Organics, Schwerte, Germany) and/or the MBL inhibitor 6d were added into wells of a 96-well plate to give a final bacterial inoculum of approximately 5 × 10^5 CFU/mL. The temperature was adjusted to 37 °C. A permanent shaking speed of 450 rpm was used and was only interrupted before OD600 measurement. The optical densities of samples were recorded online every 10 min for 24 h.

[21] = system: NDM-1 expressing K. pneumoniae (T2301); assay: Growth inhibition assay (OD600 growth curves); type: cell-based
Description: as §5, §6

[22] = system: VIM-1 expressing K. pneumoniae (T2216); assay: Growth inhibition assay (OD600 growth curves); type: cell-based
Description: as §5, §6

[23] = 6d at 128 μg/mL plus imipenem at 0.5 × MIC, 24 h

T5 sequence (P12821 30-1306): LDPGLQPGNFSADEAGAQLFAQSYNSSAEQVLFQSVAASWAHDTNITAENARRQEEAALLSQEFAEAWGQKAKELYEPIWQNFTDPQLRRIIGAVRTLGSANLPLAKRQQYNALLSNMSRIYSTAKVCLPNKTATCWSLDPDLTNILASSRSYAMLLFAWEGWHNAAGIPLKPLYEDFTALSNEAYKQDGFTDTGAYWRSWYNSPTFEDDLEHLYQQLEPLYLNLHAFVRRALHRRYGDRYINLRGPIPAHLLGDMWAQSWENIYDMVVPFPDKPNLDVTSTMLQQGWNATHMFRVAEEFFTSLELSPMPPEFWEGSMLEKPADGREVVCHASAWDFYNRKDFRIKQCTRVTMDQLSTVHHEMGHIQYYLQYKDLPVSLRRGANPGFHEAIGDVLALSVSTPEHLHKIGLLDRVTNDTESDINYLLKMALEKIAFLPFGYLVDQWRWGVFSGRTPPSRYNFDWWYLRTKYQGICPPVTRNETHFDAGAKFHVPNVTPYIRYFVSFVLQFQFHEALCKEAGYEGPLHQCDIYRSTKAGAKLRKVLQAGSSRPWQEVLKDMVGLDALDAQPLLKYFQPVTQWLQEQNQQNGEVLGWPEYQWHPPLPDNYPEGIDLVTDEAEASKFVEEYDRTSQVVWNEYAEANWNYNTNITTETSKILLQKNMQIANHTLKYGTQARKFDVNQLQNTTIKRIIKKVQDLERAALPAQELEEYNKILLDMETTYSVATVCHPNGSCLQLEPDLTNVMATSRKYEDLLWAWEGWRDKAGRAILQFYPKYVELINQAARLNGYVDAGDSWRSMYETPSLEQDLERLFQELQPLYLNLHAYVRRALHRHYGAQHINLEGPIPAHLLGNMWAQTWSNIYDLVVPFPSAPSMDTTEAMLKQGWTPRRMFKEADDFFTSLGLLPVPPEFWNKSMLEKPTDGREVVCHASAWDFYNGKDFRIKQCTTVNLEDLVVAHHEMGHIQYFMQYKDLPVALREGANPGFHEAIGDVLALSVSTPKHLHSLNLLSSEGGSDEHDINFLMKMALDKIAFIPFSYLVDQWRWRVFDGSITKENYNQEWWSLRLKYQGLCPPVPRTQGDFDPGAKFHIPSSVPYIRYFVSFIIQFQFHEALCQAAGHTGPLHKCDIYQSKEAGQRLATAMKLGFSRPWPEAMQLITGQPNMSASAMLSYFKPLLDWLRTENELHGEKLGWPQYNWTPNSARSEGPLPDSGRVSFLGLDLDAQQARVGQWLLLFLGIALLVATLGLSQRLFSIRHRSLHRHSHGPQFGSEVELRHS
T1 sequence (C7C422 29-270 limits assumed): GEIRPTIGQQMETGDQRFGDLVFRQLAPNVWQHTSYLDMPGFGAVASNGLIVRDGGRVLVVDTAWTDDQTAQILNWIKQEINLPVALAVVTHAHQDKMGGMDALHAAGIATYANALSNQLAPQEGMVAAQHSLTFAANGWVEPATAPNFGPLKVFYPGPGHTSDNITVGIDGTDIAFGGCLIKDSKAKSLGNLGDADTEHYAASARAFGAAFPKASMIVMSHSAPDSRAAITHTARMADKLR
T2 sequence (P52699 19-246, looked up, species assumed): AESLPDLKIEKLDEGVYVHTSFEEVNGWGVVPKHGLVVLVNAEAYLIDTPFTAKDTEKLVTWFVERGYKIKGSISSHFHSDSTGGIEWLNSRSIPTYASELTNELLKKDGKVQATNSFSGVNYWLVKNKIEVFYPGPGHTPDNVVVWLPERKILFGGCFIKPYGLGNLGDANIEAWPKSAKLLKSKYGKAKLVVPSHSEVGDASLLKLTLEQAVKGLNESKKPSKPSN
Sequence of IMP-7 (Q93AU3 entry or part of it): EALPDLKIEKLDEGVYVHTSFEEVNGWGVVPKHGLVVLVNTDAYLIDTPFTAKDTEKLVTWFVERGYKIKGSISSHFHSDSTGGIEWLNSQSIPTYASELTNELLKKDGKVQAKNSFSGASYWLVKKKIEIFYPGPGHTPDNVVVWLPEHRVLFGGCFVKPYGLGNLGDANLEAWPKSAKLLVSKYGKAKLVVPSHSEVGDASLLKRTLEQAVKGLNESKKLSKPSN

Structure (SMILES)	IC50 [1]	Ki [2]	inhibition at 50 µM [2]	inhibition at 50 µM [3]	inhibition at 50 µM [4]	imipenem MIC, E. coli SI-M001 (bla NDM‑1 +) [5]	imipenem MIC, E. coli SI-G001 (bla NDM‑4 +) [6]	imipenem MIC, E. coli SI–N003 (bla NDM‑7 +) [7]	imipenem MIC, A. baumannii AC-54/97 (bla IMP‑2 +) [8]	imipenem MIC, K. pneumoniae 7023 (bla VIM‑1 +) [9]	imipenem MIC, K. pneumoniae VA-416/02 (bla VIM‑4 +) [10]	imipenem MIC, S. marcescens SI-1591 (bla VIM‑2 +) [11]	potentiation of imipenem (change of imipenem MIC) on the panel, in words [12]	K, VIM-2 [13]	k –2, VIM-2 [13]	Kd [13]	inhibition at 50 µM [16]	further results
C[C@H](CS)C(=O)N1c2ccccc2C2(CCCCC2)[C@@H]1C(N)=O [6f, (R)-1′-((S)-3-Mercapto-2-methylpropanoyl)spiro[cyclohexane-1,3′-indoline]-2′-carboxamide]	4800 nM	2100 ± 200 nM	83%	38%	92%	32 µg/mL	64 µg/mL	64 µg/mL	128 µg/mL	64 µg/mL	128 µg/mL	16 µg/mL	unable to reduce the imipenem MIC	>20 µM	2.6 × 10^–3 s^–1	160 ± 10 nM		
CCC1(CC)c2ccccc2N(C(=O)[C@H](C)CS)[C@H]1C(N)=O [6d, (R)-3,3-Diethyl-1-((S)-3-mercapto-2-methylpropanoyl)indoline-2-carboxamide]	3500 nM	2600 ± 100 nM	90%	51%	98%	32 µg/mL	32 µg/mL	64 µg/mL	128 µg/mL	16 µg/mL	64 µg/mL	8 µg/mL		>30 µM	5.0 × 10^–3 s^–1	80 ± 10 nM	< 5%	IC50 [14]: 3300 nM; IC50 [15]: 400 nM; inhibitory activity on ACE-1 (in words) ([16]; tested at 50 μM): negligible activity; also recorded: completely inactive; imipenem MIC, K. pneumoniae T2301 (bla NDM‑1 +) [17]: 16 ^c μg/mL; fold reduction of the imipenem MIC, VIM-1-producing K. pneumoniae isolate ([9]; in combination with imipenem): 8 fold and 4 fold; imipenem MIC, K. pneumoniae T2216 (bla VIM‑1 +) [18]: 2 ^c μg/mL; imipenem MIC, P. aeruginosa T2325 (bla IMP‑1 +) ([19]; compound at 128 μg/mL, median of three experiments): 16 ^c μg/mL; fold reduction of the imipenem MIC, IMP-1-producing P. aeruginosa isolate ([19]; in combination with imipenem): 8 fold and 4 fold; effect on the inhibitory potential of imipenem (growth curves) [20, 23]: further prolonged for several hours; intrinsic antibacterial activity (no activity up to) ([20]; inhibitor alone): > 128 µg/mL; effect on the inhibitory potential of imipenem (growth curves) [21, 23]: further prolonged for several hours; intrinsic antibacterial activity (no activity up to) ([21]; inhibitor alone): > 128 µg/mL; effect on the inhibitory potential of imipenem (growth curves) [22, 23]: further prolonged for several hours; intrinsic antibacterial activity (no activity up to) ([22]; inhibitor alone): > 128 µg/mL
C[C@H](CS)C(=O)N1c2ccccc2C2(CCCCC2)[C@H]1C(N)=O [6e, (S)-1′-((S)-3-Mercapto-2-methylpropanoyl)spiro[cyclohexane-1,3′-indoline]-2′-carboxamide]	7400 nM	2000 ± 100 nM	86%	68%	97%	32 µg/mL	64 µg/mL	64 µg/mL	128 µg/mL	64 µg/mL	64 µg/mL	16 µg/mL	unable to reduce the imipenem MIC				< 5%	Ki ([3]; competitive model, imipenem reporter substrate, read-out: K i IMP-1): 3800 ± 300 nM; Ki ([13]; competitive model, imipenem reporter substrate, read-out: K i VIM-2): 100 ± 10 nM
